Reference: US8906925B2, “Pyrido[4,3-B]indoles containing rigid moieties” (Medivation Technologies, Inc., priority 2008, dated 2014)

Tests used:
[1] = target: human dopamine D2L receptor (Homo sapiens, UniProt P14416); assay: Aequorin functional assay, dopamine D2L (CHO-K1); format: cell-based; design: host or cells: CHO-K1 co-expressing mitochondrial apoaequorin and Gα16; conditions: for inhibition at 0.005 µM / inhibition at […] / inhibition at 0.05 µM / inhibition at 0.5 µM / inhibition at 5 µM / inhibition at 15 µM: CHO-K1; for inhibition at 0.005 µM: Antagonist concentration 5 nM; for inhibition at 0.05 µM: Antagonist concentration 50 nM; for inhibition at 0.5 µM: Antagonist concentration 500 nM; for inhibition at 5 µM: Antagonist concentration 5000 nM; for inhibition at 15 µM: Antagonist concentration 15000 nM
Source text: To study the functional activity of compounds of the invention on the human recombinant dopamine D2L with Aequorin, GTPγS and cAMP functional assays and on the human recombinant serotonin 5-HT2A receptor with Aequorin, CHO-K1 cell lines expressing D2L or 5-HT2A recombinant receptor, mitochondrial apoaequorin and Gα16 were used for the Aequorin assay. CHO-K1 cell line expressing the recombinant D2L receptor was used for the cAMP assay and was amplified to prepare membranes used for the GTPγS assay.
Cells were incubated at room temperature for at least 4 h with Coelenterazine h (Molecular Probes). Dose response curves with reference compounds were performed before testing the compounds of the invention. D2L reference agonist and antagonist were quinpirol (Tocris, 1061) and haloperidol (Tocris, 0931), respectively. […] For agonist testing, 50 μL of cell suspension were injected on 50 μL of test compound or reference agonist plated in a 96-well plate. The resulting emission of light was recorded using the Hamamatsu Functional Drug Screening System 6000 (FDSS 6000). Following an incubation of 15 min after the first injection, 100 μL of reference agonist at a concentration corresponding to its EC80 was injected on the 100 μL of the mixture of cell suspension and test compound, for antagonist testing. The resulting emission of light was recorded using the same luminometer as for agonist testing. To standardize the emission of recorded light (determination of the “100% signal”) across plates and across different experiments, some of the wells contained 100 μM digitonin or a saturating concentration of ATP (20 μM). Plates also contained the reference agonist at a concentration equivalent to the EC100 and EC80 obtained during the test validation.

[2] = test system: Sprague Dawley rats; assay: Subchronic PCP-induced social interaction deficits; format: in vivo, rat
Source text: Phencyclidine (PCP) administered to humans as well to experimental animals induces full-spectrum of schizophrenia symptoms, including negative symptoms and cognitive deficits. A major symptom of schizophrenia is considered to be social isolation/withdrawal as part of the cluster of negative symptoms. Subchronic treatment with PCP in rats leads to the development of clear signs of social withdrawal as measured by deficits in the interaction time with a cage intruder rat.
Male Sprague Dawley rats (˜150 g on arrival) from Harlan (Indiana) were used in this study. Upon receipt, rats were group housed in OPTI rats ventilated cages. Rats were housed in groups of 2-3/cage for the remainder of the study. During the period of acclimation, rats were examined on a regular basis, handled, and weighed to assure adequate health and suitability. Rats were maintained on a 12/12 light/dark cycle with the light on at 7:00 a.m. The room temperature was maintained between 20 and 23° C. with a relative humidity maintained between 30% and 70%. Chow and water were provided ad libitum for the duration of the study. Animals were randomly assigned across treatment groups and balanced by age. Animals were not disturbed between test days.
The following compounds were used. 1) Compound No. 88 or 90 (0.3, 1 and 3 mg/kg; p.o.) was dissolved in 3% Tween and PBS and administered 30 min prior to test; 2) PCP (2 mg/kg; s.c.) was dissolved in saline and administered twice daily for 5 days prior to test day; 3) Clozapine (2.5 mg/kg; i.p.) was dissolved in 5% PEG:5% Tween 80 in saline and administered 30 min. prior to test. All compounds were administered at a dose volume of 1 mL/kg.
For five days prior to test, rats were injected twice daily with either PCP (2 mg/kg; s.c) or saline (s.c). On day 6 and following a 30 min pretreatment with vehicle, clozapine or Compound No. 90, a pair of rats, unfamiliar to each other, receiving the same treatment were placed in a white plexiglas open field arena (24″×17″×8″) and allowed to interact with each other for 6 min. Social interactions (‘SI’) included: sniffing the other rat; grooming the other rat; climbing over or under or around the other rat; following the other rat; or exploring the ano-genital area of the other rat. Passive contact and aggressive contact were not considered a measure of social interaction. The time the rats spent interacting with each other during the 6 min test was recorded by a trained observer. The social interaction chambers were thoroughly cleaned between the different rats.
Data were analyzed by analysis of variance (ANOVA) followed by post-hoc analysis (e.g., Fischer, Dunnett) when appropriate. An effect was considered significant if p<0.05.

[3] = Antagonist concentration 150 nM
[4] = Antagonist concentration 1500 nM

human dopamine D2L receptor, sequence (P14416 whole entry): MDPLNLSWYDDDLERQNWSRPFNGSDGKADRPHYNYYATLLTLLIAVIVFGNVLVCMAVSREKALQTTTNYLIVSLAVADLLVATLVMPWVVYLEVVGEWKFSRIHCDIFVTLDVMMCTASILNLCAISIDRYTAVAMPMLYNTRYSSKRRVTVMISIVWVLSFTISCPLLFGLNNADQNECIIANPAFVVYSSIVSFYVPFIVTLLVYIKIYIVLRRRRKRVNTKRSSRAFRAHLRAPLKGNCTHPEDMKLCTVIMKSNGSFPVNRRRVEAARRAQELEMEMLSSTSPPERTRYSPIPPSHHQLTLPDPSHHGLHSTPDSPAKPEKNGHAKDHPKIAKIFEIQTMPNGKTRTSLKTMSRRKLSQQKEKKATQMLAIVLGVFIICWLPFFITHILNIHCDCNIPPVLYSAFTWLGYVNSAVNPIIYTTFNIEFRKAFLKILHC

SMILES	D2L Agonist % Activation (Aequorin) ([1]; Agonist concentration 10 nM)	D2L Agonist % Activation (Aequorin) ([1]; Agonist concentration 30 nM)	D2L Agonist % Activation (Aequorin) ([1]; Agonist concentration 100 nM)	D2L Agonist % Activation (Aequorin) ([1]; Agonist concentration 300 nM)	D2L Agonist % Activation (Aequorin) ([1]; Agonist concentration 1000 nM)	D2L Agonist % Activation (Aequorin) ([1]; Agonist concentration 3000 nM)	D2L Agonist % Activation (Aequorin) ([1]; Agonist concentration 10000 nM)	D2L Agonist % Activation (Aequorin) ([1]; Agonist concentration 30000 nM)	inhibition at 0.005 µM [1]	inhibition at […] ([1]; Antagonist concentration 15 nM)	inhibition at 0.05 µM [1]	inhibition at […] [1, 3]	inhibition at 0.5 µM [1]	inhibition at […] [1, 4]	inhibition at 5 µM [1]	inhibition at 15 µM [1]	PCP-induced decrease of social interaction time ([2]; 0.3, 1 and 3 mg/kg p.o., 30 min prior to test)	PCP-induced decrease of social interaction ([2]; 1 mg/kg p.o., 30 min prior to test)	sedation in the home cage during pretreatment time ([2]; 3 mg/kg p.o.)	deficits in social interaction time induced by chronic PCP ([2]; 0.3 and 3 mg/kg p.o., did not reach control levels (partial reversal))
C/C(=C\n1c2c(c3cc(Cl)ccc31)CN(C)CC2)c1ccc(F)cc1 [Compound 83, (E)-8-chloro-5-(2-(4-fluorophenyl)prop-1-enyl)-2,3,4,5-tetrahydro-2-methyl-1H-pyrido[4,3-b]indole]	2.43%	0.68%	1.26%	0.92%	−0.12%	0.00%	6.32%	84.25%	93.5%	96.4%	96.8%	96.8%	96.8%	96%	96%	92.3%				
C/C(=C\n1c2c(c3cc(C)ccc31)CN(C)CC2)c1ccncc1 [Compound 88, (E)-2,3,4,5-tetrahydro-2,8-dimethyl-5-(2-(pyridin-4-yl)prop-1-enyl)-1H-pyrido[4,3-b]indole]																	attenuated			
C/C(=C\n1c2c(c3cc(Cl)ccc31)CN(C)CC2)c1ccncc1 [Compound 90, (E)-8-chloro-2,3,4,5-tetrahydro-2-methyl-5-(2-(pyridin-4-yl)prop-1-enyl)-1H-pyrido[4,3-b]indole]	0.95%	0.25%	−0.23%	−0.24%	−0.48%	−1.20%	−0.78%	−0.92%	95.5%	97.3%	93.5%	96.8%	97.9%	97.2%	97.4%	96.1%		fully reversed	Mild sedation	significantly attenuated
